Assay results taken from ChEMBL document CHEMBL2146447, “Synthesis and antimicrobial activity of amido linked pyrrolyl and pyrazolyl-oxazoles, thiazoles and imidazoles” (2011).
Values belong to the molecule of their own block, whether it stands above or below them. Calls of active or inactive are those of the source. No cut-off for these calls is given here.

How the values were obtained:
Assay type in all cases: functional
Aspergillus niger [1] = experiment: Fungicidal activity against Aspergillus niger after 48 hrs by broth dilution method
Aspergillus niger [2] = experiment: Antifungal activity against Aspergillus niger at 100 ug after 48 hrs by agar well diffusion method; conditions: for zone of inhibition at 100 µg/disc: read-out: DIZ
Penicillium chrysogenum [3] = experiment: Antifungal activity against Penicillium chrysogenum at 100 ug after 48 hrs by agar well diffusion method; conditions: for zone of inhibition at 100 µg/disc: read-out: DIZ
Penicillium chrysogenum [4] = experiment: Antifungal activity against Penicillium chrysogenum at 50 ug after 48 hrs by agar well diffusion method; conditions: for zone of inhibition at 50 µg/disc: read-out: DIZ
Aspergillus niger [5] = experiment: Antifungal activity against Aspergillus niger at 50 ug after 48 hrs by agar well diffusion method; conditions: for zone of inhibition at 50 µg/disc: read-out: DIZ
Penicillium chrysogenum [6] = experiment: Fungicidal activity against Penicillium chrysogenum after 48 hrs by broth dilution method
Staphylococcus aureus [7] = experiment: Antibacterial activity against Staphylococcus aureus at 100 ug after 24 hrs by agar well diffusion method; conditions: for zone of inhibition at 100 µg/disc: read-out: DIZ
Bacillus subtilis [8] = experiment: Antibacterial activity against Bacillus subtilis at 50 ug after 24 hrs by agar well diffusion method; conditions: for zone of inhibition at 50 µg/disc: read-out: DIZ
Klebsiella pneumoniae [9] = experiment: Antibacterial activity against Klebsiella pneumoniae at 50 ug after 24 hrs by agar well diffusion method; conditions: for zone of inhibition at 50 µg/disc: read-out: DIZ
Klebsiella pneumoniae [10] = experiment: Antibacterial activity against Klebsiella pneumoniae at 100 ug after 24 hrs by agar well diffusion method; conditions: for zone of inhibition at 100 µg/disc: read-out: DIZ
Pseudomonas aeruginosa [11] = experiment: Antibacterial activity against Pseudomonas aeruginosa at 50 ug after 24 hrs by agar well diffusion method; conditions: for zone of inhibition at 50 µg/disc: read-out: DIZ
Pseudomonas aeruginosa [12] = experiment: Bactericidal activity against Pseudomonas aeruginosa after 24 hrs by broth dilution method
Bacillus subtilis [13] = experiment: Bactericidal activity against Bacillus subtilis after 24 hrs by broth dilution method
Staphylococcus aureus [14] = experiment: Antibacterial activity against Staphylococcus aureus at 35 degC after 24 hrs by broth dilution method
Klebsiella pneumoniae [15] = experiment: Bactericidal activity against Klebsiella pneumoniae after 24 hrs by broth dilution method
Bacillus subtilis [16] = experiment: Antibacterial activity against Bacillus subtilis at 100 ug after 24 hrs by agar well diffusion method; conditions: for zone of inhibition at 100 µg/disc: read-out: DIZ
Staphylococcus aureus [17] = experiment: Antibacterial activity against Staphylococcus aureus assessed at 50 ug after 24 hrs by agar well diffusion method; conditions: for zone of inhibition at 50 µg/disc: read-out: DIZ
Pseudomonas aeruginosa [18] = experiment: Antibacterial activity against Pseudomonas aeruginosa at 100 ug after 24 hrs by agar well diffusion method; conditions: for zone of inhibition at 100 µg/disc: read-out: DIZ

SMILES: CC(=O)N1CCN(c2ccc(OCC3COC(Cn4ccnc4)(c4ccc(Cl)cc4Cl)O3)cc2)CC1 (stereo not given) [KETOCONAZOLE]
- MIC (Aspergillus niger [1]): 6.25 µg
- zone of inhibition at 100 µg/disc (Aspergillus niger [2]): 36 mm
- zone of inhibition at 100 µg/disc (Penicillium chrysogenum [3]): 38 mm
- zone of inhibition at 50 µg/disc (Penicillium chrysogenum [4]): 36 mm
- zone of inhibition at 50 µg/disc (Aspergillus niger [5]): 33 mm
- MIC (Penicillium chrysogenum [6]): 12.5 µg

- MIC (Staphylococcus aureus [14]): 6.25 µg
SMILES: O=C(N[C@H](CO)[C@H](O)c1ccc([N+](=O)[O-])cc1)C(Cl)Cl [CHLORAMPHENICOL]
- zone of inhibition at 100 µg/disc (Staphylococcus aureus [7]): 35 mm
- zone of inhibition at 50 µg/disc (Bacillus subtilis [8]): 34 mm
- zone of inhibition at 50 µg/disc (Klebsiella pneumoniae [9]): 40 mm
- zone of inhibition at 100 µg/disc (Klebsiella pneumoniae [10]): 42 mm
- zone of inhibition at 50 µg/disc (Pseudomonas aeruginosa [11]): 27 mm
- MIC (Pseudomonas aeruginosa [12]): 6.25 µg
- MIC (Bacillus subtilis [13]): 6.25 µg
- MIC (Klebsiella pneumoniae [15]): 12.5 µg
- zone of inhibition at 100 µg/disc (Bacillus subtilis [16]): 38 mm
- zone of inhibition at 50 µg/disc (Staphylococcus aureus [17]): 33 mm
- zone of inhibition at 100 µg/disc (Pseudomonas aeruginosa [18]): 30 mm

SMILES: Cc1ccc(-c2coc(NC(=O)c3c[nH]cc3-c3ccccc3)n2)cc1
- diameter of the inhibition zone (DIZ) (Aspergillus niger [2]): inactive
- diameter of the inhibition zone (DIZ) (Staphylococcus aureus [7]): inactive
- diameter of the inhibition zone (DIZ) (Bacillus subtilis [8]): inactive
- diameter of the inhibition zone (DIZ) (Klebsiella pneumoniae [9]): inactive
- diameter of the inhibition zone (DIZ) (Klebsiella pneumoniae [10]): inactive
- diameter of the inhibition zone (DIZ) (Penicillium chrysogenum [3]): inactive
- diameter of the inhibition zone (DIZ) (Penicillium chrysogenum [4]): inactive
- diameter of the inhibition zone (DIZ) (Pseudomonas aeruginosa [11]): inactive
- diameter of the inhibition zone (DIZ) (Aspergillus niger [5]): inactive
- diameter of the inhibition zone (DIZ) (Bacillus subtilis [16]): inactive
- diameter of the inhibition zone (DIZ) (Staphylococcus aureus [17]): inactive
- diameter of the inhibition zone (DIZ) (Pseudomonas aeruginosa [18]): inactive

SMILES: Cc1ccc(-c2csc(NC(=O)C3=NNCC3c3ccccc3)n2)cc1 (stereo not given)
- zone of inhibition at 100 µg/disc (Aspergillus niger [2]): 16 mm
- zone of inhibition at 100 µg/disc (Staphylococcus aureus [7]): 15 mm
- zone of inhibition at 50 µg/disc (Bacillus subtilis [8]): 16 mm
- zone of inhibition at 50 µg/disc (Klebsiella pneumoniae [9]): 18 mm
- zone of inhibition at 100 µg/disc (Klebsiella pneumoniae [10]): 20 mm
- zone of inhibition at 100 µg/disc (Penicillium chrysogenum [3]): 18 mm
- zone of inhibition at 50 µg/disc (Penicillium chrysogenum [4]): 15 mm
- zone of inhibition at 50 µg/disc (Pseudomonas aeruginosa [11]): 12 mm
- zone of inhibition at 50 µg/disc (Aspergillus niger [5]): 13 mm
- zone of inhibition at 100 µg/disc (Bacillus subtilis [16]): 18 mm
- zone of inhibition at 50 µg/disc (Staphylococcus aureus [17]): 13 mm
- zone of inhibition at 100 µg/disc (Pseudomonas aeruginosa [18]): 13 mm

SMILES: O=C(Nc1nc(-c2ccc(Cl)cc2)c[nH]1)C1=NNCC1c1ccccc1 (stereo not given)
- zone of inhibition at 100 µg/disc (Aspergillus niger [2]): 30 mm
- zone of inhibition at 100 µg/disc (Staphylococcus aureus [7]): 27 mm
- zone of inhibition at 50 µg/disc (Bacillus subtilis [8]): 24 mm
- zone of inhibition at 50 µg/disc (Klebsiella pneumoniae [9]): 28 mm
- zone of inhibition at 100 µg/disc (Klebsiella pneumoniae [10]): 30 mm
- zone of inhibition at 100 µg/disc (Penicillium chrysogenum [3]): 32 mm
- zone of inhibition at 50 µg/disc (Penicillium chrysogenum [4]): 29 mm
- zone of inhibition at 50 µg/disc (Pseudomonas aeruginosa [11]): 21 mm
- zone of inhibition at 50 µg/disc (Aspergillus niger [5]): 28 mm
- zone of inhibition at 100 µg/disc (Bacillus subtilis [16]): 27 mm
- zone of inhibition at 50 µg/disc (Staphylococcus aureus [17]): 25 mm
- zone of inhibition at 100 µg/disc (Pseudomonas aeruginosa [18]): 24 mm

SMILES: O=C(/C=C/c1ccccc1)Nc1nc(-c2ccccc2)co1
- diameter of the inhibition zone (DIZ) (Aspergillus niger [2]): inactive
- zone of inhibition at 100 µg/disc (Staphylococcus aureus [7]): 15 mm
- zone of inhibition at 50 µg/disc (Bacillus subtilis [8]): 15 mm
- diameter of the inhibition zone (DIZ) (Klebsiella pneumoniae [9]): inactive
- diameter of the inhibition zone (DIZ) (Klebsiella pneumoniae [10]): inactive
- diameter of the inhibition zone (DIZ) (Penicillium chrysogenum [3]): inactive
- diameter of the inhibition zone (DIZ) (Penicillium chrysogenum [4]): inactive
- diameter of the inhibition zone (DIZ) (Pseudomonas aeruginosa [11]): inactive
- diameter of the inhibition zone (DIZ) (Aspergillus niger [5]): inactive
- zone of inhibition at 100 µg/disc (Bacillus subtilis [16]): 16 mm
- zone of inhibition at 50 µg/disc (Staphylococcus aureus [17]): 12 mm
- diameter of the inhibition zone (DIZ) (Pseudomonas aeruginosa [18]): inactive

SMILES: Cc1ccc(-c2csc(NC(=O)c3n[nH]cc3-c3ccccc3)n2)cc1
- zone of inhibition at 100 µg/disc (Aspergillus niger [2]): 11 mm
- zone of inhibition at 100 µg/disc (Staphylococcus aureus [7]): 11 mm
- zone of inhibition at 50 µg/disc (Bacillus subtilis [8]): 10 mm
- zone of inhibition at 50 µg/disc (Klebsiella pneumoniae [9]): 13 mm
- zone of inhibition at 100 µg/disc (Klebsiella pneumoniae [10]): 15 mm
- zone of inhibition at 100 µg/disc (Penicillium chrysogenum [3]): 13 mm
- zone of inhibition at 50 µg/disc (Penicillium chrysogenum [4]): 10 mm
- zone of inhibition at 50 µg/disc (Pseudomonas aeruginosa [11]): 8 mm
- zone of inhibition at 50 µg/disc (Aspergillus niger [5]): 8 mm
- zone of inhibition at 100 µg/disc (Bacillus subtilis [16]): 13 mm
- zone of inhibition at 50 µg/disc (Staphylococcus aureus [17]): 9 mm
- zone of inhibition at 100 µg/disc (Pseudomonas aeruginosa [18]): 11 mm

SMILES: O=C(Nc1nc(-c2ccccc2)co1)c1n[nH]cc1-c1ccccc1
- zone of inhibition at 100 µg/disc (Aspergillus niger [2]): 13 mm
- zone of inhibition at 100 µg/disc (Staphylococcus aureus [7]): 12 mm
- zone of inhibition at 50 µg/disc (Bacillus subtilis [8]): 13 mm
- zone of inhibition at 50 µg/disc (Klebsiella pneumoniae [9]): 15 mm
- zone of inhibition at 100 µg/disc (Klebsiella pneumoniae [10]): 17 mm
- zone of inhibition at 100 µg/disc (Penicillium chrysogenum [3]): 15 mm
- zone of inhibition at 50 µg/disc (Penicillium chrysogenum [4]): 12 mm
- zone of inhibition at 50 µg/disc (Pseudomonas aeruginosa [11]): 10 mm
- zone of inhibition at 50 µg/disc (Aspergillus niger [5]): 10 mm
- zone of inhibition at 100 µg/disc (Bacillus subtilis [16]): 15 mm
- zone of inhibition at 50 µg/disc (Staphylococcus aureus [17]): 10 mm
- zone of inhibition at 100 µg/disc (Pseudomonas aeruginosa [18]): 12 mm
